{"source": "patent US7939057B2", "about": "“Methods and compositions for modulating the mobilization of stem cells” (Mount Sinai School of Medicine, priority 2006, dated 2011)", "key": {"SDF-1": {"system": "SDF-1", "test": "SDF-1 secretion by stromal cell line MS-5 (ELISA)", "assay_type": "cell-based", "settings": "72 h exposure of MS-5 cells", "text": "Studies were also done to determine the effect of norepinephrine or a beta receptor agonist on SDF-1 secretion by a stromal cell line and to determine if there is a correlation with stem cell egress. […] This corresponds with an increase in the stem cell egress."}, "[1]": {"system": "hematopoietic stem and progenitor cells (HSPCs)", "test": "Fucoidan-induced mobilization of hematopoietic progenitors (circulating CFU-C)", "assay_type": "in vivo", "settings": "Cgt−/− mice; 2 doses of 100 mg/kg i.p.", "protocol": "(§1) To induce HSPC mobilization, mice were injected with recombinant human G-CSF (Filgrastim, Amgen, Thousand Oaks, Calif., 250 μg/kg/day, every 12 hours, 8 divided doses, s.c.) in PBS supplemented with 0.1% endotoxin free bovine serum albumin (BSA) or fucoidan (Sigma; 2 doses of 100 mg/kg with 2 h interval, i.p.) in PBS. Blood was harvested 3 h (G-CSF) or 1 h (fucoidan). CFU-C assays were carried out as previously described (Katayama, Y., and Frenette, P. S. (2003). Galactocerebrosides are required postnatally for stromal-dependent bone marrow lymphopoiesis. Immunity 18, 789-800)."}, "[2]": {"system": "hematopoietic stem and progenitor cells (HSPCs)", "test": "G-CSF-induced mobilization of hematopoietic progenitors (circulating CFU-C)", "assay_type": "in vivo, mice", "settings": "for G-CSF-induced mobilization with clenbuterol: clenbuterol 2 mg/kg/day i.p. two days before and during G-CSF", "protocol": "as §1\nA chronic guide cannula (1.0 mm) was implanted stereotaxically into the lateral ventricle (coordinates AP, −0.7 mm; DV, −2.4 mm; ML, 1.5 mm, from bregma). One week after implantation, mice received a reduced dose of G-CSF (25 μg/kg daily for 4 doses) either by ICV infusion (rate: 0.4 μL/min) or by s.c. injection.\n(§2) Newborn C57BL/6 mice were injected s.c. with 6OHDA (100 mg/kg, Sigma) or vehicle (saline) on postnatal days 2, 4, 6, 8 and 9. HSPC mobilization was induced at 3 weeks of age. For SNS disruption in adult C57BL6 mice, 4 week-old animals were injected i.p. with 2 doses of 6OHDA or vehicle, 100 mg/kg on day 0, 250 mg/kg on day 2, and G-CSF treatment was begun on day 5. For β-adrenergic receptor blockade, 4 week-old C57BL/6 mice were treated with propranolol (0.5 g/L in drinking water, Sigma) or control pure water for 3 weeks prior to mobilization. For rescue experiments, clenbuterol (2 mg/kg/day, i.p.) was injected starting day −2 prior to and continued during G-CSF treatment."}, "norepinephrine": {"system": "norepinephrine", "test": "Norepinephrine turnover in hearts after AMPT", "assay_type": "in vivo, mice", "settings": "AMPT 300 mg/kg, mean±sem, n=4-5", "protocol": "FIG. 11. Norepinephine turnover in tissues following G-CSF administration in Cgt littermates. • To assess turnover rate, Cgt were administered the catecholamine synthesis inhibitor α-methyl-p-tyrosine (AMPT, 300 mg/kg, Sigma) or were left untreated. Animals were sacrificed 4 h after AMPT injection. Hearts were rapidly removed, weighed, frozen in liquid nitrogen and stored at −80° C. for norepinephrine measurements. NE levels were determined by HPLC at the Neurochemistry Core Lab, Vanderbilt University's Center for Molecular Neuroscience Research (Nashville, Tenn.). Under steady-state conditions, the decline of norepinephrine (NE) reflects the synthesis rate and the sympathetic tone. n=4-5 mice per group; * p<0.05.\nDecline in tissue levels of norepinephrine obeys first order kinetics (Brodie, B. B., Costa, E., Dlabac, A., Neff, N. H., and Smookler, H. H. (1966). Application of steady state kinetics to the estimation of synthesis rate and turnover time of tissue catecholamines. J Pharmacol Exp Ther 154, 493-498): […]"}, "circulating tumor cells": {"system": "circulating tumor cells", "settings": "AMD3100 5 mg/Kg, blood 1 h later; planned experiment", "source_text": "Luciferase expression will allow us to monitor distant metastases whereas GFP expression will permit to quantify the number of circulating tumor cells under baseline conditions and following treatment with stem cell “mobilizers”. Firstly, we will evaluate the effect of CXCR4 inhibition, using the specific antagonist AMD3100 on circulating tumor cells. Blood from NOD/SCID mice bearing tumors (day 35 for PC3lucGFP, day 15 for PC3MlucGFP) will be harvested at baseline to evaluate steady-state levels of circulating tumor cells. Mice will then be injected with AMD3100 at a dose of 5 mg/Kg and blood will be harvested 1 h later to evaluate the number of circulating tumor cells. […] To quantify the absolute counts of tumor cells, we will determine the number of circulating nucleated cells using an automatic cell counter (available in the PI's laboratory), and the proportion of GFP+ cells will be evaluated by flow cytometry in which a large sampling (>500,000 events) will be acquired owing to the rarity of circulating tumor cells."}, "[3]": {"system": "catecholaminergic neurons", "test": "Tissue catecholamines after 6-hydroxydopamine treatment (HPLC, heart)", "assay_type": "in vivo, C57BL/6 mice", "settings": "5 week-old C57BL6 mice treated perinatally with 6OHDA, n=3, p<0.05 vs PBS", "protocol": "as §2\nHearts from 5 week-old C57BL6 mice treated perinatally with 6-hydroxydopamine (6OHDA) or PBS control were homogenized in 0.1 M trichloroacetic acid containing 10 mM sodium acetate, 0.1 mM EDTA, 1 μM isoproterenol (as internal standard), and 10.5% methanol (pH 3.8). Catecholamine levels were determined by HPLC at the Neurochemistry Core Lab, Vanderbilt University's Center for Molecular Neuroscience research (Nashville, Tenn.). * p<0.05 compared with PBS control. n=3 mice."}, "hematopoietic progenitor": {"system": "hematopoietic progenitor", "test": "AMD3100-induced hematopoietic progenitor mobilization (stem cell egress)", "assay_type": "in vivo, C57BL/6 mice", "protocol": "Studies were done to determine the effect of destruction of dopaminergic and noradrenergic neurons on stem cell egress. In these studies, newborn C57BL/6 mice were injected subcutaneously with 6OHDA (100 mg/kg, Sigma) or vehicle (normal saline) on postnatal days 2, 4, 6, 8, and 9. Hematopoietic progenitor mobilization was induced at 34 weeks of age, by subcutaneous injection of AMD3100 (5 mg/kg) in normal saline. Peripheral blood was harvested retroorbitally one hour post injection. P-value was calculated using two-tailed Student's t-test assuming unequal variances.\nStudies were done to determine the effect of the beta agonist clenbuterol on stem cell egress. In this study, all drugs were dissolved in normal saline (0.9% w/v NaCl), with a delivery volume of 10 μL/g body mass. 10 μl/g saline i.p. or 2 mg/kg clenbuterol i.p. were given to adult (8-10 week old) C57BL6 mice 1 hour prior to hematopoietic progenitor mobilization induced by […] s.c. Peripheral blood was harvested retroorbitally one hour post AMD3100 injection. P-value was calculated using two-tailed Student's t-test assuming unequal variances."}}, "note": "Counter-ions that a name gives are not always drawn. Marks after values point to notes of the source that are not given here."}
{"molecule": "CC(C)NCC(O)c1ccc(O)c(O)c1", "note": "(stereo not drawn) [Isoproterenol]", "values": [{"measurement": "SDF-1 secretion", "setting": "SDF-1", "value": "decreased in a dose-dependent manner"}]}
{"molecule": "NC[C@H](O)c1ccc(O)c(O)c1", "note": "[norepinephrine]", "values": [{"measurement": "SDF-1 secretion", "setting": "SDF-1", "value": "decreased in a dose-dependent manner"}]}
{"molecule": "fucoidan", "values": [{"measurement": "CFU-C mobilization by fucoidan", "setting": "[1]", "value": "not mobilized"}]}
{"molecule": "CC(C)NCC(O)COc1cccc2ccccc12", "note": "(stereo not drawn) [propranolol, 1-[(1-Methylethyl)amino]-3-(1-naphthalenyloxy)-2-propanol]", "values": [{"measurement": "reduction of the number of HSPCs elicited by G-CSF", "setting": "[2]; C57BL6 mice treated for three weeks with propranolol (0.5 g/L in drinking water)", "value": "> 20", "unit": "%"}]}
{"molecule": "CC(N)(Cc1ccc(O)cc1)C(=O)O", "note": "(stereo not drawn) [AMPT, α-methyl-p-tyrosine]", "values": [{"measurement": "Level after AMPT inhibition, 4 h (norepinephrine, heart)", "setting": "norepinephrine; Cgt+/+, Cgt+/− mice", "value": "198 ± 38", "unit": "pg/mg wet weight"}, {"measurement": "Level after AMPT inhibition, 4 h (norepinephrine, heart)", "setting": "norepinephrine; Cgt−/− mice", "value": "335 ± 32", "unit": "pg/mg wet weight"}]}
{"molecule": "c1cc(CN2CCCNCCNCCCNCC2)ccc1CN1CCCNCCNCCCNCC1", "note": "[AMD3100, 1,1′-[1,4-phenylene-bis(methylene)]-bis(1,4,8,11-tetra-azacyclotetradecane) octahydrochloride dehydrate]", "values": [{"measurement": "number of circulating tumor cells", "setting": "circulating tumor cells", "value": "will increase the number of circulating tumor cells"}]}
{"molecule": "NCCc1cc(O)c(O)cc1O", "note": "[6OHDA, 6-hydroxydopamine]", "values": [{"measurement": "G-CSF-elicited mobilization", "setting": "[2]; 6OHDA-treated adult C57BL/6 mice", "value": "significantly reduced"}, {"measurement": "number of HSPCs mobilized by G-CSF", "setting": "[2]; perinatally 6OHDA-lesioned mice vs vehicle littermates", "value": "dramatically reduced"}, {"measurement": "baseline CFU-C counts per bone", "setting": "[2]; perinatally 6OHDA-treated mice, steady-state BM", "value": "did not alter"}, {"measurement": "Dopamine", "setting": "[3]", "value": "10 ± 10* pmol/mg tissue"}, {"measurement": "Epinephrine", "setting": "[3]", "value": "41 ± 20* pmol/mg tissue"}, {"measurement": "Norepinephrine", "setting": "[3]", "value": "49 ± 10* pmol/mg tissue"}, {"measurement": "stem cell egress induced by AMD3100", "setting": "hematopoietic progenitor; C57BL/6 mice given 6OHDA 100 mg/kg s.c. postnatal days 2, 4, 6, 8, 9, AMD3100 5 mg/kg s.c. at 34 weeks of age, blood one hour post injection", "value": "decreased in a dose dependent manner"}]}
{"molecule": "CC(C)(C)NCC(O)c1cc(Cl)c(N)c(Cl)c1", "note": "(stereo not drawn) [clenbuterol]", "values": [{"measurement": "G-CSF-induced mobilization with clenbuterol", "setting": "[2]; Dbh+/− controls", "value": "further enhanced mobilization"}, {"measurement": "G-CSF-induced mobilization with clenbuterol", "setting": "[2]; Dbh−/− mice", "value": "rescued in part the mobilization defect"}, {"measurement": "mobilization by clenbuterol by itself", "setting": "[2]; same dose schedule, no G-CSF, data not shown", "value": "did not trigger mobilization"}, {"measurement": "stem cell egress induced by AMD3100 with clenbuterol", "setting": "hematopoietic progenitor; adult C57BL6 mice, clenbuterol 2 mg/kg i.p. 1 hour prior to AMD3100 s.c., blood one hour post AMD3100", "value": "boost stem cell egress in a dose dependent manner"}]}
